Measured values: publication PMC9908032, “Novel nitroxide-bile acid conjugates inform substrate requirements for human bile acid transporters” (European journal of pharmaceutical sciences : official …, 2022)

B1: Na+/taurocholate cotransporting polypeptide (hNTCP) (Homo sapiens) (protein)
chain: MEAHNASAPFNFTLPPNFGKRPTDLALSVILVFMLFFIMLSLGCTMEFSKIKAHLWKPKGLAIALVAQYGIMPLTAFVLGKVFRLKNIEALAILVCGCSPGGNLSNVFSLAMKGDMNLSIVMTTCSTFCALGMMPLLLYIYSRGIYDGDLKDKVPYKGIVISLVLVLIPCTIGIVLKSKRPQYMRYVIKGGMIIILLCSVAVTVLSAINVGKSIMFAMTPLLIATSSLMPFIGFLLGYVLSALFCLNGRCRRTVSMETGCQNVQLCSTILNVAFPPEVIGPLFFFPLLYMIFQLGEGLLLIAIFWCYEKFKTPKDKTKMIYTAATTEETIPGALGNGTYKGEDCSPCTA

How the values were obtained:
[1] = molecular target: T1, Na+/taurocholate cotransporting polypeptide (hNTCP) (Homo sapiens, UniProt Q14973); assay: inhibition of [3H]-taurocholate uptake in transiently transfected hNTCP-HEK293T cells; type: cell-based
T1 construct: gene SLC10A1
T1 sequence (Q14973 1-349): B1 chain

[2] = molecular target: T2, apical sodium dependent bile acid transporter (hASBT) (Homo sapiens, UniProt Q12908); assay: inhibition of [3H]-taurocholate uptake in stably transfected hASBT-MDCK cells; type: cell-based
T2 construct: gene SLC10A2
T2 sequence (Q12908 1-348): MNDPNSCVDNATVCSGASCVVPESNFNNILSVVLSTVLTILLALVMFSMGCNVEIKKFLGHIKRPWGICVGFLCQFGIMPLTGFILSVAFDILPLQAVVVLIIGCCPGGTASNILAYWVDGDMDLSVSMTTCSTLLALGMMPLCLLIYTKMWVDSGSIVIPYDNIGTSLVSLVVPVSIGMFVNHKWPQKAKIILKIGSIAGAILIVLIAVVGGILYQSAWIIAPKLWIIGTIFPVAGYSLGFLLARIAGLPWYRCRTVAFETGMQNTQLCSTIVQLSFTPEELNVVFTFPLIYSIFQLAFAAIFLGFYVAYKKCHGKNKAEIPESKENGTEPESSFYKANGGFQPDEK

[3] = substrate: C[C@H](CCC(=O)NCCS(=O)(=O)O)[C@H]1CC[C@H]2[C@@H]3[C@H](O)C[C@@H]4C[C@H](O)CC[C@]4(C)[C@H]3C[C@H](O)[C@]12C; assay: cells, lysate or membranes; settings: Na+

| Molecule | Ki [1] | Ki [2] | Km [3] |
| --- | --- | --- | --- |
| C[C@H](CCC(=O)NCC(=O)O)[C@H]1CC[C@H]2[C@@H]3[C@H](O)C[C@@H]4C[C@H](O)CC[C@]4(C)[C@H]3C[C@H](O)[C@]12C [GCA, glycocholic acid] | 2.47 ± 0.43 µM | 8.28 ± 0.57 µM | – |
| B1 | – | – | 2.14 ± 1.55 µM |
